Data published in PMC8286840, “Identifying SARS-CoV-2 antiviral compounds by screening for small molecule inhibitors of Nsp3 papain-like protease” (Biochemical Journal, 2021).
Where a name gives a salt, the structure may show the parent alone. Read-outs that look alike come from different tables or passages of the source.

Key:
[1] = target: T1, SARS-CoV-2 PLpro (nsp3 1564–1878) (Severe acute respiratory syndrome coronavirus 2, UniProt P0DTD1); assay: biochemical; parameters: FRET-quenched peptide (Pro3) cleavage by PLpro, 10 min pre-incubation, slope over 20 min, normalised to no-compound control; conditions: low concentration screen, read-out: % of control remaining
[2] = target: T1, SARS-CoV-2 PLpro (nsp3 1564–1878); assay: biochemical; parameters: FRET-quenched peptide (Pro3) cleavage by PLpro, 10 min pre-incubation, slope over 20 min, normalised to no-compound control; conditions: high concentration screen, read-out: % of control remaining

`CC(=O)Oc1ccccc1C(=O)Oc1ccc(CO[N+](=O)[O-])cc1` [NCX 4040] showed a remaining activity at 1.25 µM ([1]; Well no.=6087) of 99.1% and a remaining activity at 3.75 µM ([2]; Well no.=6087) of 99.2%.
For `O=C(Nc1cc(C(=O)Nc2ccc(S(=O)(=O)O)cc2S(=O)(=O)O)cc(C(=O)Nc2ccc(S(=O)(=O)O)cc2S(=O)(=O)O)c1)Nc1cc(C(=O)Nc2ccc(S(=O)(=O)O)cc2S(=O)(=O)O)cc(C(=O)Nc2ccc(S(=O)(=O)O)cc2S(=O)(=O)O)c1` [NF449 octasodium salt], the remaining activity at 1.25 µM ([1]; Well no.=1095) was 97.6% and the remaining activity at 3.75 µM ([2]; Well no.=1095) was 98.3%.
In the case of `O=C(Nc1cccc(C(=O)Nc2ccc(S(=O)(=O)O)c3cc(S(=O)(=O)O)cc(S(=O)(=O)O)c23)c1)Nc1cccc(C(=O)Nc2ccc(S(=O)(=O)O)c3cc(S(=O)(=O)O)cc(S(=O)(=O)O)c23)c1` [NF 023], the remaining activity at 1.25 µM ([1]; Well no.=813) is reported as 88.1% and the remaining activity at 3.75 µM ([2]; Well no.=813) is reported as 89.2%.
Work on `Nc1ccc2ncnc(NCCc3ccc(Oc4ccccc4)cc3)c2c1` [NF-kB Activation Inhibitor] yielded a remaining activity at 1.25 µM ([1]; Well no.=2566) of 97.6% and a remaining activity at 3.75 µM ([2]; Well no.=2566) of 98.5%.
`NC(=NCCC[C@H](N)C(=O)O)NO` [NG-Hydroxy-L-arginine acetate] showed a remaining activity at 1.25 µM ([1]; Well no.=660) of 96.5% and a remaining activity at 3.75 µM ([2]; Well no.=660) of 96.5%.
`CNC(=N)NCCC[C@H](N)C(=O)O` [NG-Monomethyl-L-arginine acetate] was tested, and the remaining activity at 1.25 µM ([1]; Well no.=886) was 102% and the remaining activity at 3.75 µM ([2]; Well no.=886) was 103%.
`COC(=O)[C@@H](N)CCCNC(=N)N[N+](=O)[O-]` [NG-Nitro-L-arginine methyl ester hydrochloride] gave a remaining activity at 1.25 µM ([1]; Well no.=1001) of 99.6% and a remaining activity at 3.75 µM ([2]; Well no.=1001) of 98.3%.
`N=C(NCCC[C@H](N)C(=O)O)N[N+](=O)[O-]` [NG-Nitro-L-arginine] showed a remaining activity at 1.25 µM ([1]; Well no.=857) of 99.8% and a remaining activity at 3.75 µM ([2]; Well no.=857) of 101%.
`O=C(NCCCCN1CCN(c2cccc(Cl)c2Cl)CC1)c1ccc2c(c1)Cc1ccccc1-2` [NGB 2904 hydrochloride] showed a remaining activity at 1.25 µM ([1]; Well no.=5407) of 97.8% and a remaining activity at 3.75 µM ([2]; Well no.=5407) of 101%.
`Cc1cnc(NC(=O)c2cc(S(=O)(=O)N(C)C)ccc2N2CCCC2)s1` [NGI-1] gave a remaining activity at 1.25 µM ([1]; Well no.=7684) of 103% and a remaining activity at 3.75 µM ([2]; Well no.=7684) of 103%.
`CCCCCCCCCCCCCCCCn1cc[n+](Cc2ccccc2)c1C` [NH 125 - 1-Hexadecyl-2-methyl-3-(phenylmethyl)-1H-imidazolium iodide] gave a remaining activity at 1.25 µM ([1]; Well no.=2336) of 97.5% and a remaining activity at 3.75 µM ([2]; Well no.=2336) of 97%.
`O=C(N[C@H]1CCN(C(=O)c2cc(C(F)(F)F)cc(C(F)(F)F)c2)[C@H](Cc2ccc(Cl)cc2)C1)c1ccnc2ccccc12` [NKP608] was tested, and the remaining activity at 1.25 µM ([1]; Well no.=8427) was 93.4% and the remaining activity at 3.75 µM ([2]; Well no.=8427) was 92.6%.
`C[C@@]1(O)[C@H](O)[C@@H](CO)O[C@H]1n1ccc(N)nc1=O` [NM107] gave a remaining activity at 1.25 µM ([1]; Well no.=8897) of 99.5% and a remaining activity at 3.75 µM ([2]; Well no.=8897) of 100%.
With `CN1CCC(NC(=O)c2cc(-c3c(O)cc(O)cc3Oc3ccc([N+](=O)[O-])cc3)on2)CC1` [NMS-E973] the remaining activity at 1.25 µM ([1]; Well no.=8620) was 94.8% and the remaining activity at 3.75 µM ([2]; Well no.=8620) was 89.2%.
`CC1(NC2=NS(=O)(=O)c3sc(Cl)cc3N2)CC1` [NN414] was tested, and the remaining activity at 1.25 µM ([1]; Well no.=5436) was 103% and the remaining activity at 3.75 µM ([2]; Well no.=5436) was 104%.
`O=C(O)C1=CCCN(CCON=C(c2ccccc2)c2ccccc2)C1` [NO-711 hydrochloride] gave a remaining activity at 1.25 µM ([1]; Well no.=1149) of 92.4% and a remaining activity at 3.75 µM ([2]; Well no.=1149) of 88.4%.
With `CCCCCCCCCCCCC(=O)N1CCCCC1CNC(=O)[C@@H](N)CCCCN` (stereo partly drawn) [NPC-15437 dihydrochloride] the remaining activity at 1.25 µM ([1]; Well no.=1132) was 94% and the remaining activity at 3.75 µM ([2]; Well no.=1132) was 95.6%.
With `CC(C)(Cc1ccc2ccccc2c1)NC[C@@H](O)COc1cccc(Cl)c1C#N` [NPS-2143 (hydrochloride)] the remaining activity at 1.25 µM ([1]; Well no.=7051) was 107% and the remaining activity at 3.75 µM ([2]; Well no.=7051) was 105%.
With `CC(C)(Cc1ccc2ccccc2c1)NC[C@@H](O)COc1cccc(Cl)c1C#N` [NPS-2143] the remaining activity at 1.25 µM ([1]; Well no.=7036) was 96.4% and the remaining activity at 3.75 µM ([2]; Well no.=7036) was 93.8%.
With `CC(=O)c1ccc(NC2=C(Cl)C(=O)c3ccccc3C2=O)cc1` [NQ301] the remaining activity at 1.25 µM ([1]; Well no.=5652) was 93.7% and the remaining activity at 3.75 µM ([2]; Well no.=5652) was 82.1%.
Work on `CCOC(=O)c1c2c3c(cccc3[nH]c1=O)C(=O)c1ccccc1-2` [NQDI-1] yielded a remaining activity at 1.25 µM ([1]; Well no.=5480) of 90.1% and a remaining activity at 3.75 µM ([2]; Well no.=5480) of 96.7%.
For `CCCCN1CCC(n2c(=O)[nH]c3ccccc32)CC1` [NS 521 oxalate], the remaining activity at 1.25 µM ([1]; Well no.=1003) was 99.3% and the remaining activity at 3.75 µM ([2]; Well no.=1003) was 105%.
Work on `O=c1onc2n1-c1cc(Br)ccc1OC2` [NS 2028] yielded a remaining activity at 1.25 µM ([1]; Well no.=990) of 99.8% and a remaining activity at 3.75 µM ([2]; Well no.=990) of 99.6%.
`CC(C)N(CCCCOCC(=O)NS(C)(=O)=O)c1cnc(-c2ccccc2)c(-c2ccccc2)n1` [NS-304] was tested, and the remaining activity at 1.25 µM ([1]; Well no.=6795) was 97.6% and the remaining activity at 3.75 µM ([2]; Well no.=6795) was 94.6%.
`O=c1[nH]c2cc(C(F)(F)F)ccc2n1-c1cc(C(F)(F)F)ccc1O` [NS-1619] showed a remaining activity at 1.25 µM ([1]; Well no.=846) of 104% and a remaining activity at 3.75 µM ([2]; Well no.=846) of 102%.
`CN1CCN(C(=O)/C=C/c2ccc([N+](=O)[O-])o2)CC1` [NSC59984] was tested, and the remaining activity at 1.25 µM ([1]; Well no.=6644) was 105% and the remaining activity at 3.75 µM ([2]; Well no.=6644) was 106%.
`C/C(=N\NC(=S)N1CCC1)c1ccccn1` [NSC319726] gave a remaining activity at 1.25 µM ([1]; Well no.=6736) of 102% and a remaining activity at 3.75 µM ([2]; Well no.=6736) of 102%.
For `Cc1ccc2nc(CN(CCN(Cc3nc4ccc(C)cc4[nH]3)Cc3nc4ccc(C)cc4[nH]3)Cc3nc4ccc(C)cc4[nH]3)[nH]c2c1` [NSC348884], the remaining activity at 1.25 µM ([1]; Well no.=6442) was 105% and the remaining activity at 3.75 µM ([2]; Well no.=6442) was 98.1%.
`CC(C)(N)C(=O)O` [NSC 16590] was tested, and the remaining activity at 1.25 µM ([1]; Well no.=7781) was 103% and the remaining activity at 3.75 µM ([2]; Well no.=7781) was 108%.
Molecule `CCN(CC)CCCC(C)Nc1nc(C)cc(Nc2ccc3nc(C)cc(N)c3c2)n1` (stereo not drawn) [NSC 23766] has a remaining activity at 1.25 µM ([1]; Well no.=4798) of 103% and a remaining activity at 3.75 µM ([2]; Well no.=4798) of 101%.
In the case of `CC(=O)N[C@@H](Cc1ccccc1)C(=O)O` [NSC 45699], the remaining activity at 1.25 µM ([1]; Well no.=8710) is reported as 107% and the remaining activity at 3.75 µM ([2]; Well no.=8710) is reported as 106%.
`O=C1C(SCCO)=C(SCCO)C(=O)c2ccccc21` [NSC 95397] was tested, and the remaining activity at 1.25 µM ([1]; Well no.=5678) was 92% and the remaining activity at 3.75 µM ([2]; Well no.=5678) was 75.9%.
Molecule `CN1CCN(c2ccc([N+](=O)[O-])c3no[n+]([O-])c23)CC1` [NSC-207895 (XI-006)] has a remaining activity at 1.25 µM ([1]; Well no.=4647) of 101% and a remaining activity at 3.75 µM ([2]; Well no.=4647) of 95.2%.
With `O=c1cc(N2CCOCC2)oc2c(-c3cccc4c3sc3ccccc34)cccc12` [NU7441 (KU-57788)] the remaining activity at 1.25 µM ([1]; Well no.=4926) was 99.2% and the remaining activity at 3.75 µM ([2]; Well no.=4926) was 94.3%.
Work on `O=c1cc(N2CCOCC2)oc2c1ccc1ccccc12` [NU 7026 - 2-(4-Morpholinyl)-4H-naphthol[1,2-b]pyran-4-one] yielded a remaining activity at 1.25 µM ([1]; Well no.=2630) of 92.2% and a remaining activity at 3.75 µM ([2]; Well no.=2630) of 92.6%.
Work on `O=C(Nc1nc2ccc(NC(=O)C34C[C@H]5C[C@@H](C3)C[C@@H](C4)C5)cc2s1)c1ccccc1` [NVP-231] yielded a remaining activity at 1.25 µM ([1]; Well no.=5410) of 95.2% and a remaining activity at 3.75 µM ([2]; Well no.=5410) of 86.5%.
